Entries after “also recorded” stand apart in the source; their conditions may differ.
Legend:
Assay type in all cases: cell-based
[1] = test system: mouse organs (heart, brain, spleen organotypic slices); test: Mouse organotypic slices hypoxia stress, PI/DAPI staining; settings: 2500 μM EGTA during stress, hypoxia 2.5 hrs in N2 gas bubbled buffer
From the text: For organotypic cultures, sagittal hippocampal brainslices were taken from wild type mice. Following decapitation, all organs were quickly removed, placed in ice-cold buffer (artificial cerebrospinal fluid (ACSF) [in mmol/L]: NaCl 125, KCl 2.4, NaHCO326, NaH2PO4 1.25, glucose 25, CaCl2 2 [0.5 mmol/L for dissection], MgCl2 1 [5 mmol/L for dissection]; bubbled with carbogen) for brain, and for all other organs Ringers buffer. For brain, to reduce the rate of cell death most dissections were carried out with high-magnesium (5 mmol/L)/low-calcium (0.5 mmol/L) ACSF. The brain was hemisected and a section was cut away by hand that was approximately 100° from the midline surface. The hemispheres were then mounted with superglue on to a slicing stage and 300 μm hippocampal slices were cut with a vibroslicer and transferred to an incubating chamber with circulating ACSF (bubbled with carbogen). All other organs were treated similarly but Ringer's buffer was used instead of ACSF. For the heart and spleen, cross sectional slices going fully across the organ were taken. The slices were incubated at 35° C. for approximately 1 hrs before the incubator was switched off and the bath was allowed to cool to room temperature. […]

E. coli = E. coli oxidative stress, colony forming units; settings: EGTA 2500 μM during stress; 50 min 1 mM H2O2
Protocol: 2 loops of E. coli stationary-phase bacterial cells collected post seeding (80 μL from a culture grown for 12 hrs) on agar plates containing bactopeptone and allowing to grow for 24 hrs was collected in buffer. Bacterial cells were then stressed for 50 min using 1 mM hydrogen peroxide. Treatment is EGTA 2500 μM during stress. Cells were then washed in buffer. Following stress, bacteria was washed in buffer and then diluted 1:500 in MilliQ water and seeded onto agar plates containing bactopeptone and left at 37° C. overnight. This was followed by counting colony forming units (CFU) counted. Three repeats were performed.
(§1) Bacteria, E. coli, and yeast, S. pombi, were exposed to toxin hydrogen peroxide stress (stress is for 50 min 1 mM H2O2) with or without high doses (2500 μM; c.f. FIG. 2) of the chelating agent EGTA (inhibitor of the predicted weak spot of loss of calcium ion homeostasis in the cytosol) delivered during the stress.
Following stress, bacteria cells were then placed on agar plates and allowed to grow at 37° C. overnight and colony forming units (CFU) were then counted.

S. pombi = S. pombi oxidative stress, Propidium iodide staining; settings: EGTA 2500 μM during stress; 50 min 1 mM H2O2
Protocol: A culture of S. pombi was exposed to 1 mM hydrogen peroxide for 50 min. Following this the yeast cells were washed in buffer and stained with the dye Propidium iodide (PI) and placed on a microscope slide under a coverslip and imaged using Nomarski and epifluorescence microscopy to identify the percentage of yeast cells that underwent necrosis. Treatment is EGTA 2500 μM during stress. Two repeats were performed.
as §1
For yeast, cells were stained with the standard viability dye Propidium iodide (PI) that only enters necrotic cells, placed on a microscope slide under a coverslip, and imaged using Nomarski and epifluorescence microscopy to identify the percentage of cells that undergo necrosis (all cells present could be counted using Nomarski microscopy).

[2] = test system: Zebra fish (Danio rerio) liver; test: Zebra fish liver oxidative stress, PI/DAPI staining; settings: 2500 μM EGTA during stress, 7 min in 1 mM H2O2
Protocol: Freshly culled zebrafish (Danio rerio) was dissected to quickly remove the liver which was then placed in PBS buffer and immediately stressed with 1 mM hydrogen peroxide for 7 min in with or without 2500 μM EGTA. The liver was then washed in PBS to stop the stress and stained with PI as well as DAPI to visualise all cell nuclei (including intact cell nuclei). The liver was then placed on a microscope slide under a coverslip and imaged.
Moving to more complex animals, the intact liver from freshly culled and dissected zebrafish (Danio rerio) was placed in PBS buffer and immediately stressed with the toxin hydrogen peroxide with or without EGTA. The liver was then washed in PBS and stained with PI as well as DAPI to visualise all cell nuclei (including intact cell nuclei). The liver was then placed on a microscope slide under a coverslip and imaged, and the percentage of PI-stained cells scored (relative to all cells seen in the image, i.e., DAPI stained).

Hepg2s spheroids = test system: Hepg2s spheroids
Protocol: Media changes were on alternative days. […] DMSO controls were added on each plate.
In some of the following Examples, human 3D cell culture was employed using liver Hepg2 cells. 3D cell culture is known to accurately replicate a cell's native environment. During embryonic development, cells aggregate and self-assemble into complex multi-cellular structures. The same aggregation process can likewise occur in in vitro culture systems if cell-cell cohesion is favoured over cell attachment to a substrate. The resulting 3D cell culture aggregates are known as spheroids. […] A standard method of spheroid formation in U-bottom low adhesion plates was used in the Examples herein.
This is because, as the spheroids grow, only the peripheral cells obtain oxygen and nutrients from the cell culture medium. The inner cells die from cell death necrosis, with the formation of large necrotic cores (observable though use of standard live dead stains). Thus, necrotic core formation represents a naturally occurring hypoxic and nutrient stress. This resembles multiple forms of shock in humans where blood flow carrying nutrients and oxygen is disrupted to certain cells, tissues and/or organs.

## O=C(O)CN(CCOCCOCCN(CC(=O)O)CC(=O)O)CC(=O)O [EGTA, ethylene glycol-bis(β-aminoethyl ether)-N,N,N′,N′-tetraacetic acid]
[1]
  % of necrotic cells (PI stain) relative to all cells (DAPI stain): necrosis cell death is prevented; also recorded: marked improvement in all 3 tissue types
E. coli
  E. coli death / colony forming units (CFU) following oxidative stress: death is prevented
S. pombi
  S. pombi death / % of necrotic (PI stained) cells following oxidative stress: death is prevented
[2]
  % of necrotic cells (PI stain) relative to all cells (DAPI stain): necrosis cell death is prevented; also recorded: reduction in the percentage of necrotic (PI stained) cells
Hepg2s spheroids; Hepg2s spheroids, day 7
  dosage needed to suppress necrosis: 2500 µM
Hepg2s spheroids; time points earlier than day 7
  toxicity at earlier time points: some mild, but not statistically significant, toxicity

From patent publication US20260216141A1, “NECROSIS INHIBITOR” (LINKGEVITY LIMITED, priority 2023, published 2026)
